Measurements reported in ChEMBL document CHEMBL4411318, “Discovery of a Series of 2'-α-Fluoro,2'-β-bromo-ribonucleosides and Their Phosphoramidate Prodrugs as Potent Pan-Genotypic Inhibitors of Hepatitis C Virus” (J Med Chem, 2019).

Legend:
[1] = Cytotoxicity against human HuH7 cells assessed reduction in cell viability after 3 to 5 days by MTT assay; type: cell-based, Huh-7
[2] = Cytotoxicity against human PBMC assessed reduction in cell viability after 5 days by MTT assay; type: cell-based; conditions: PBMC
[3] = Cytotoxicity against human CCRF-CEM assessed reduction in cell viability after 4 days by MTT assay; type: cell-based; conditions: CCRF-CEM cells
Vero = type: cell-based; conditions: chlorocebus sabaeus, 72 h
[4] = target: RNA-directed RNA polymerase (Hepacivirus hominis) (UniProt O39930); conditions: Hepatitis C virus subtype 1b
Chain of RNA-directed RNA polymerase (Hepacivirus hominis) (O39930 1-591): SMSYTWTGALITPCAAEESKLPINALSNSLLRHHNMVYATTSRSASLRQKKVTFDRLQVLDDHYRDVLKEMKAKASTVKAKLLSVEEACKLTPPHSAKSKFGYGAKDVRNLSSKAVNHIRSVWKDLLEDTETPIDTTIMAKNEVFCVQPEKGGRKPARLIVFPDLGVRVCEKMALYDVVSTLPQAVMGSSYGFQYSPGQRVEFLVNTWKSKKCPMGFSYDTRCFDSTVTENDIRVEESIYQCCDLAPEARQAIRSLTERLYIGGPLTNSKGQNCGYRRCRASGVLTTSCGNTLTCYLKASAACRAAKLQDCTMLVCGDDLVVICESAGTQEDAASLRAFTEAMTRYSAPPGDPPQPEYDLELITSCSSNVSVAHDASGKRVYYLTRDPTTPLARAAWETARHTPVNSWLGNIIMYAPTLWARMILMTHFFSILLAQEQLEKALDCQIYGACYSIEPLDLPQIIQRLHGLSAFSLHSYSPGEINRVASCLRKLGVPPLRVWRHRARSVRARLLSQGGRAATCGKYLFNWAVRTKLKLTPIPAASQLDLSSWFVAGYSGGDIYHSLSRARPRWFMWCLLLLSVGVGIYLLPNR
Description: Inhibition of NS5B polymerase in wild type HCV genotype 1b infected in human Huh7 replicon cells after 5 days by RT-PCR assay

Huh-7 = assay: Cytotoxicity against human HuH7 cells assessed reduction in cell viability after 3 to 5 days by cellular ribosomal RNA amplification assay
[5] = target: DNA-directed RNA polymerase, mitochondrial (Homo sapiens, UniProt O00411); assay: Substrate activity at human POLRMT assessed as 5-radiolabled RNA/DNA incorporation levels at 100 uM after 2 hrs by PAGE analysis; type: ADME
Chain of DNA-directed RNA polymerase, mitochondrial (O00411 whole entry): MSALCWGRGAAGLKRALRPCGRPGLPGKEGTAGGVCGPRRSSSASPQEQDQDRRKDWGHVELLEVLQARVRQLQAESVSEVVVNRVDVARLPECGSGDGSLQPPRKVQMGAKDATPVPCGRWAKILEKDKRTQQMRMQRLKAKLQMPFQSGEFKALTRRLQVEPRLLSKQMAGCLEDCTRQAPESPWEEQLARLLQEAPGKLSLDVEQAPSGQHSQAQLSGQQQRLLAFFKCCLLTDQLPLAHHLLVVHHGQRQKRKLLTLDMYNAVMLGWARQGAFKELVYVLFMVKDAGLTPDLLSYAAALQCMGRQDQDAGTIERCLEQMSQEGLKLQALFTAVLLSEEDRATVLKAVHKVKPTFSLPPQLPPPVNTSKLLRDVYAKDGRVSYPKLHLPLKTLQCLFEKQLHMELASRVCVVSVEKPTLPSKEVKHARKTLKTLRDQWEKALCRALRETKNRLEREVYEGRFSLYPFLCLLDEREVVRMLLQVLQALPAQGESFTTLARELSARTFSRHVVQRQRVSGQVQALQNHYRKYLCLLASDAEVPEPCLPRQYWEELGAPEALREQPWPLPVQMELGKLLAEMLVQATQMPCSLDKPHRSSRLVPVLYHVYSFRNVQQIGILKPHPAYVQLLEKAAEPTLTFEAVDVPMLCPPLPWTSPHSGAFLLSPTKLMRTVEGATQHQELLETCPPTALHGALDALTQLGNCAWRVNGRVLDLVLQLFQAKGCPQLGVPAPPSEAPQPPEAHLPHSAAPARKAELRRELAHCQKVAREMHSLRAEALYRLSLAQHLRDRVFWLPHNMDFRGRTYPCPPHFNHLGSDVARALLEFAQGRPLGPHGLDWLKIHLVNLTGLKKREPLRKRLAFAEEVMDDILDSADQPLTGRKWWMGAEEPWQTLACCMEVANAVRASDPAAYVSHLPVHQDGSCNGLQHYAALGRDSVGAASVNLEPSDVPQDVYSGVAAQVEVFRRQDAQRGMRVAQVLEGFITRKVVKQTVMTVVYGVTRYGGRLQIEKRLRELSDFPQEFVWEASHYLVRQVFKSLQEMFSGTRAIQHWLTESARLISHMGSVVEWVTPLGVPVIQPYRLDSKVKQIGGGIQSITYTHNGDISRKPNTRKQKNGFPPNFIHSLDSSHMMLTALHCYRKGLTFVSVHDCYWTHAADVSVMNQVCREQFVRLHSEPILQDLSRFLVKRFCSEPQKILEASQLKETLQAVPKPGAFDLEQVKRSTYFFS

[6] = target: T1, DNA polymerase alpha catalytic subunit (Homo sapiens, UniProt P09884); assay: Inhibition of human DNA polymerase alpha using 5-end radiolabeled 24nt to 48nt DNA as primer template after 5 mins in presence of dCTP/dGTP/dTTP/dATP by PAGE analysis
T1 sequence (P09884 whole entry): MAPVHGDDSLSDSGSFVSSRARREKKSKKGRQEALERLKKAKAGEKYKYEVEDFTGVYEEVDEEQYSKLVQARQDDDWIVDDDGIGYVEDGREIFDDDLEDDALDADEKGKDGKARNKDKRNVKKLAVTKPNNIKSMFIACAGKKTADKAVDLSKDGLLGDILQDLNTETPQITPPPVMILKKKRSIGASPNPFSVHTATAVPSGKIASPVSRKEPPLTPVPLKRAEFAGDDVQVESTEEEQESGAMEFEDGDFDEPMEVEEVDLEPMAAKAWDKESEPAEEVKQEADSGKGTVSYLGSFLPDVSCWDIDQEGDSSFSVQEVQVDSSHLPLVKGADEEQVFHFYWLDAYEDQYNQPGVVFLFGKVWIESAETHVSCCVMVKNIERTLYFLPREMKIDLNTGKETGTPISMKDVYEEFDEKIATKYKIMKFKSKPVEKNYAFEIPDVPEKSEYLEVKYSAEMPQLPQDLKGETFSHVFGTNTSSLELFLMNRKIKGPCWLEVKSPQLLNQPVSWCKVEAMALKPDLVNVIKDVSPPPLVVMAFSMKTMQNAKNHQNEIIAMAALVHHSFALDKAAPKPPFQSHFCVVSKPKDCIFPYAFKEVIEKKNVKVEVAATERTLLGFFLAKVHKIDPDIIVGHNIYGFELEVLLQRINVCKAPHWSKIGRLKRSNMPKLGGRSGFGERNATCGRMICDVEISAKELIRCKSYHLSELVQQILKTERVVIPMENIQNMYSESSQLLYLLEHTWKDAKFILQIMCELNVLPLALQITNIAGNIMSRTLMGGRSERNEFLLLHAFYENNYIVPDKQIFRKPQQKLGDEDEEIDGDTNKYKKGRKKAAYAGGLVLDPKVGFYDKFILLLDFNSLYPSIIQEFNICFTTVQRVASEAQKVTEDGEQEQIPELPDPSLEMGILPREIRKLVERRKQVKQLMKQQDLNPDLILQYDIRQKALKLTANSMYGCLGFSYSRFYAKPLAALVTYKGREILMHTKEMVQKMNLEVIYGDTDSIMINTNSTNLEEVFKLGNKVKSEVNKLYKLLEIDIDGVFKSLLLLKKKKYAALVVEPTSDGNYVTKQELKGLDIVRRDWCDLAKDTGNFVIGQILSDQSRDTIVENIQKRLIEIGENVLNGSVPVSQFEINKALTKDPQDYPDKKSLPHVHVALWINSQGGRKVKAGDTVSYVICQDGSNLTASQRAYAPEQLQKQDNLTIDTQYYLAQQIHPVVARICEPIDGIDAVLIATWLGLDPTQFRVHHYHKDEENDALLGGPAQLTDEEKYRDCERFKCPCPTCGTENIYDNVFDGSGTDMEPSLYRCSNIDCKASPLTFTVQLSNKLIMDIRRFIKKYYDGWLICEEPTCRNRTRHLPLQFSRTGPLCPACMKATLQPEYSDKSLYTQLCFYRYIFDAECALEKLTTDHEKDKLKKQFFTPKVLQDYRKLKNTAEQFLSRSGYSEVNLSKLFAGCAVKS

DNA polymerase beta = DNA polymerase beta (Homo sapiens, UniProt P06746); assay: Inhibition of human DNA polymerase beta using 5-end radiolabeled 24nt to 48nt DNA as primer template after 5 mins in presence of dCTP/dGTP/dTTP/dATP by PAGE analysis
[7] = Inhibition of human DNA polymerase gamma using 5-end radiolabeled 24nt to 48nt DNA as primer template after 120 mins in presence of dCTP/dGTP/dTTP/dATP by PAGE analysis
[8] = Mitochondrial toxicity in human HepG2 cells assessed as reduction in cell viability after 14 days in presence of glucose supplemented media by ATP depletion assay; type: cell-based
[9] = Mitochondrial toxicity in human HepG2 cells assessed as reduction in cell viability after 3 days in presence of galactose supplemented media by ATP depletion assay; type: cell-based
[10] = Mitochondrial toxicity in human HepG2 cells assessed as reduction in cell viability after 3 days in presence of glucose supplemented media by ATP depletion assay; type: cell-based
HepG2 = assay: Mitochondrial toxicity in human HepG2 cells assessed as lactic acid production at 50 uM followed by medium plus drugs replenishment every 3 to 4 days for 14 days relative to control; type: cell-based; conditions: hepg2, 336 h
[11] = target: RNA-directed RNA polymerase (Hepacivirus hominis) (UniProt O39930); assay: Inhibition of NS5B polymerase in HCV genotype 1b/4a chimeric replicon infected in human HuH7 replicon cells after 5 days by RT-PCR analysis; type: cell-based
[12] = target: RNA-directed RNA polymerase (Hepacivirus hominis) (UniProt O39930); assay: Inhibition of NS5B polymerase in HCV genotype 2a infected in human HuH7 replicon cells after 5 days by RT-PCR analysis; type: cell-based; conditions: Hepatitis C virus subtype 2a
[13] = target: RNA-directed RNA polymerase (Hepacivirus hominis) (UniProt O39930); assay: Inhibition of NS5B polymerase in HCV genotype 1b/5a chimeric replicon infected in human HuH7 replicon cells after 5 days by RT-PCR analysis; type: cell-based
[14] = Drug metabolism in human HuH7 cells assessed as Tmax for NTP formation at 10 uM after 2 to 48 hrs by LC-MS/MS analysis; type: ADME, cell-based; conditions: huh-7, 10 µM
[15] = system: cytochrome c oxidase subunit 2 DNA level; assay: Mitochondrial toxicity in human HepG2 cells assessed as inhibition of cytochrome c oxidase subunit 2 DNA level at 50 uM followed by medium plus drugs replenishment every 3 to 4 days for 14 days relative to control; type: cell-based
[16] = system: nuclear ribosomal-DNA level; assay: Mitochondrial toxicity in human HepG2 cells assessed as inhibition of nuclear ribosomal-DNA level at 50 uM followed by medium plus drugs replenishment every 3 to 4 days for 14 days relative to control; type: cell-based
[17] = system: cytochrome c oxidase subunit 2 DNA level; assay: Mitochondrial toxicity in human HepG2 cells assessed as inhibition of cytochrome c oxidase subunit 2 DNA level followed by medium plus drugs replenishment every 3 to 4 days for 14 days relative to control; type: cell-based
Bone marrow cell [18] = assay: Cytotoxicity against human bone marrow cells assessed as inhibition of burst forming unit-erythroid after 14 days by FACS analysis; type: cell-based; conditions: 336 h
Bone marrow cell [19] = assay: Cytotoxicity against human bone marrow cells assessed as inhibition of colony-forming unit-granulocyte after 14 days by FACS analysis; type: cell-based; conditions: 336 h
[20] = Cardiotoxicity against human embryonic stem cell-induced ventricular cardiomyocytes administered on day 7 and measured on day 10 after 30 mins incubation by CellTiter Glo assay; type: toxicity, cell-based, Cardiac muscle cell
[21] = Half life in human intestinal microsomes by LC/MS/MS analysis; type: ADME, Intestine, Microsome
[22] = Stability in human plasma assessed as compound remaining at 2 uM after 120 mins by LC/MS/MS analysis; type: ADME, cell-free; conditions: read-out: Stability
[23] = Stability in simulated intestinal fluid after 24 hrs by LC/MS/MS analysis; type: ADME; conditions: simulated gi fluid
[24] = target: RNA-directed RNA polymerase (Hepacivirus hominis) (UniProt O39930); conditions: genotype 1b/3a
Description: Inhibition of NS5B polymerase in HCV genotype 1b/3a chimeric replicon infected in human HuH7 replicon cells after 5 days by RT-PCR analysis

[25] = system: nuclear ribosomal-DNA level; assay: in vitro; conditions: human, HepG2 cells
in vitro [26] = conditions: human, liver microsomes
Description: Half life in human liver microsomes in presence of NADPH regenerating system by LC/MS/MS analysis

in vitro [27] = conditions: human, liver microsomes; remark: listed apart in the source
Description: Intrinsic clearance in human liver microsomes in presence of NADPH regenerating system by LC/MS/MS analysis

in vitro [28] = conditions: human, liver microsomes; remark: listed apart in the source
Description: Stability in human liver microsomes assessed as compound remaining in absence of NADPH regenerating system after 60 mins by LC/MS/MS analysis

in vitro [29] = conditions: human, liver microsomes; remark: listed apart in the source
Description: Intrinsic clearance in human liver measured from intrinsic clearance in human liver microsomes in presence of NADPH regenerating system by LC/MS/MS analysis

[30] = Drug uptake in Beagle dog liver at 10 mg/kg, po measured up to 4 hrs by LC-MS/MS analysis; conditions: in vivo, BLD = below limit of detection
[31] = Drug metabolism in Beagle dog liver assessed as formation of triphosphate form parent nucleoside at 10 mg/kg, po measured up to 4 hrs by LC-MS/MS analysis; conditions: in vivo
[32] = Stability in Beagle dog plasma assessed as compound remaining at 2 uM up to 2 hrs by LC-MS/MS analysis; type: ADME, cell-free, Canis lupus familiaris; conditions: read-out: Stability
[33] = Stability in Sprague-Dawley rat plasma assessed as compound remaining at 2 uM after 2 hrs by LC-MS/MS analysis; type: ADME, cell-free; conditions: read-out: Stability

CC(C)OC(=O)[C@H](C)NP(=O)(OC[C@H]1O[C@@H](n2cnc3c(N)ncnc32)[C@](F)(Br)[C@H]1O)Oc1ccccc1 (stereo partly drawn)
CC50 [1]: > 10 µM | CC50 at 120 h [2]: > 100 µM | CC50 at 96 h [3]: > 100 µM

Nc1ccn([C@@H]2O[C@H](CO)[C@@H](O)[C@]2(F)Br)c(=O)n1
CC50 at 96 h [3]: > 100 µM | CC50 (Vero): > 100 µM | EC90 [4]: 9.5 µM | CC50 (Huh-7): > 10 µM

Nc1nc2c(ncn2[C@@H]2O[C@H](CO)[C@@H](O)[C@]2(F)Br)c(=O)[nH]1
CC50 at 96 h [3]: > 100 µM | CC50 (Vero): > 100 µM | EC90 [4]: > 10 µM | CC50 (Huh-7): > 10 µM

C[C@@]1(F)[C@H](O)[C@@H](COP(=O)(O)OP(=O)(O)OP(=O)(O)O)O[C@H]1n1ccc(=O)[nH]c1=O [GS-461203]
Activity [5]: 3.1% | IC50 [6]: > 100 µM | IC50 (DNA polymerase beta): > 100 µM | IC50 [7]: > 100 µM

CC(C)OC(=O)[C@H](C)NP(=O)(OC[C@H]1O[C@@H](n2ccc(N)nc2=O)C(F)(Br)C1O)Oc1ccccc1 (single isomer, unassigned)
CC50 at 96 h [3]: > 100 µM | CC50 (Vero): > 100 µM | EC90 [4]: 1.8 µM | CC50 (Huh-7): > 10 µM

CC(C)OC(=O)[C@H](C)N[P@@](=O)(OC[C@H]1O[C@@H](n2ccc(=O)[nH]c2=O)C(F)(Br)C1O)Oc1ccccc1 (single isomer, unassigned)
IC50 at 14 days [8]: > 100 µM | IC50 at 3 days [9]: > 100 µM | IC50 at 3 days [10]: > 100 µM | Activity (HepG2): 100% | EC90 [11]: 0.87 µM | EC90 [12]: 0.83 µM | CC50 [1]: > 10 µM | CC50 at 120 h [2]: > 100 µM | CC50 at 96 h [3]: > 100 µM | EC90 [13]: 0.8 µM | Tmax [14]: 24 h | inhibition at 336 h, 50 µM [15]: 31% | inhibition at 336 h, 50 µM [16]: < 1% | IC50 at 14 days [17]: > 50 µM | IC50 (Bone marrow cell [18]): > 100 µM | IC50 (Bone marrow cell [19]): > 100 µM | IC50 at 3 days [20]: > 100 µM | half-life [21]: 2.2 h | remaining at 2 h, 2 µM [22]: 72% | Stability [23]: Stable | EC90 [24]: 1.6 µM | EC90 [4]: 0.53 to 2.4 µM | IC50 at 14 days [25]: > 50 µM | half-life (in vitro [26]): 0.307 h | microsomal CLint (in vitro [27]): 75.3 µL/min/mg | remaining at 1 h (in vitro [28]): 26.6% | CLint scaled (in vitro [29]): 67.8 mL/min/kg | Drug uptake [30]: Bld | Drug metabolism [31]: Metabolite_Notdetected

O=C(O)Cc1ccccc1Nc1c(Cl)cccc1Cl [DICLOFENAC]
CLint scaled (in vitro [29]): 116 mL/min/kg

CC(C)OC(=O)[C@H](C)NP(=O)(OC[C@H]1O[C@@H](n2cnc3c(=O)[nH]c(N)nc32)[C@](F)(Br)[C@H]1O)Oc1ccccc1 (stereo partly drawn)
CC50 at 96 h [3]: > 100 µM | EC90 [4]: 1.8 µM

Nc1ncnc2c1ncn2[C@@H]1O[C@H](CO)C(O)C1(F)Br (single isomer, unassigned)
CC50 at 96 h [3]: > 100 µM | CC50 (Vero): > 100 µM | EC90 [4]: > 10 µM | CC50 (Huh-7): > 10 µM

O=c1ccn([C@@H]2O[C@H](COP(=O)(O)OP(=O)(O)OP(=O)(O)O)[C@@H](O)[C@H]2O)c(=O)[nH]1 [URIDINE TRIPHOSPHATE]
Activity [5]: 100%

CC(C)OC(=O)[C@H](C)NP(=O)(OC[C@H]1O[C@@H](n2ccc(=O)[nH]c2=O)[C@](F)(Br)[C@H]1O)Oc1ccccc1 (mixture of isomers)
Activity (HepG2): 140% | CC50 at 120 h [2]: > 100 µM | CC50 at 96 h [3]: > 100 µM | inhibition at 336 h, 50 µM [15]: 39% | inhibition at 336 h, 50 µM [16]: 40% | IC50 at 14 days [17]: > 50 µM | remaining at 2 h, 2 µM [32]: 100% | remaining at 2 h, 2 µM [33]: 0.2% | EC90 [4]: 0.9 µM | IC50 at 14 days [25]: > 50 µM | CC50 (Huh-7): > 10 µM

C[C@@]1(O)[C@H](O)[C@@H](COP(=O)(O)OP(=O)(O)OP(=O)(O)O)O[C@H]1n1ccc(=O)[nH]c1=O
Activity [5]: 9.8%
